According to ChEMBL document CHEMBL1129652, “Substituted 1,2-dihydrophthalazines: potent, selective, and noncompetitive inhibitors of the AMPA receptor” (J Med Chem, 1996):

Tests used:
[1] = molecular target: Glutamate receptor ionotropic, AMPA (Rattus norvegicus, UniProt P19490+P19491+P19492+P19493)
Description: Inhibitory activity against AMPA receptor currents in rat cortical cells stimulated with 50 uM kainic acid

[2] = molecular target: Glutamate receptor ionotropic, AMPA (Rattus norvegicus) (UniProt P19491+P19492+P19493+P19490); test: Compound at 10 uM of kainic acid; type: functional

IC50 [1]	inhibition [2]	Compound
1.8 µM	–	CCCCNC(=O)N1N=C(c2ccc(N)cc2)c2cc3c(cc2C1C)OCO3 (stereo not drawn)
5.4 µM	–	CC1c2cc3c(cc2C(c2ccc(N)cc2)=NN1C(=O)NC(C)(C)C)OCO3 (stereo not drawn)
7.2 µM	–	CCNC(=O)N1N=C(c2ccc(N)cc2)c2cc3c(cc2C1C)OCO3 (stereo not drawn)
2.8 µM	–	CCCNC(=O)N1N=C(c2ccc(N)cc2)c2cc3c(cc2C1C)OCO3 (stereo not drawn)
23 µM	13%	CNC(=O)N1N=C(c2ccc(N)cc2)c2cc3c(cc2C1C)OCO3 (stereo not drawn)

Compound	IC50 [1]	inhibition [2]
CNC(=O)N1N=C(c2ccc(N)cc2)c2cc3c(cc2CC1C)OCO3 (stereo not drawn) [GYKI-53655]	1 µM	–
CC1=NN=C(c2ccc(N)cc2)c2cc3c(cc2C1)OCO3 [GYKI-52466]	10 µM	–
